Laboratory results published in the supplement of paper PMC9663587.

Legend:
[1] = compound: CC(=O)Nc1cccc(-n2c(=O)n(C3CC3)c(=O)c3c(Nc4ccc(I)cc4F)n(C)c(=O)c(C)c32)c1
Ipatasertib/GDC0068 = compound: CC(C)NC[C@@H](C(=O)N1CCN(c2ncnc3c2[C@H](C)C[C@H]3O)CC1)c1ccc(Cl)cc1 [Ipatasertib/GDC0068]
[2] = compound: CCC1=CN=CN=C1N2CCN(CC2)CC3=NC4=C(N3)C=C(C=C4)C(F)(F)F
[3] = compound: CCN1CCN(Cc2ccc(Nc3ncc(F)c(-c4cc(F)c5nc(C)n(C(C)C)c5c4)n3)nc2)CC1
BSJ-01-175 = compound: CN(C)C/C=C/C(=O)Nc1ccc(O[C@@H]2CCC[C@@H](Nc3ncc(Cl)c(-c4c[nH]c5ccccc45)n3)C2)cc1 [BSJ-01-175]
AZD2014 = compound: CNC(=O)c1cccc(-c2ccc3c(N4CCOC[C@@H]4C)nc(N4CCOC[C@@H]4C)nc3n2)c1 [AZD2014]
[4] = compound: COc1ccc2c(c1)[C@]1(C[C@H]1c1ccc3c(/C=C/c4ccc(CN5C[C@@H](C)O[C@@H](C)C5)cc4)n[nH]c3c1)C(=O)N2
AZD6738 = compound: C[C@@H]1COCCN1c1cc(C2([S@](C)(=N)=O)CC2)nc(-c2cc[nH]c3nccc2-3)n1 [AZD6738]
AZD7762 = compound: NC(=O)Nc1cc(-c2cccc(F)c2)sc1C(=O)N[C@H]1CCCNC1 [AZD7762]
Vorinostat = compound: O=C(CCCCCCC(=O)Nc1ccccc1)NO [Vorinostat]
Tivantinib/ARQ197 = compound: O=C1NC(=O)[C@@H](c2cn3c4c(cccc24)CCC3)[C@@H]1c1c[nH]c2ccccc12 [Tivantinib/ARQ197]
BSJ-03-123 = compound: CC(=O)c1c(C)c2cnc(Nc3ccc(N4CCN(CCOCCOCCOCCNC(=O)COc5cccc6c5C(=O)N(C5CCC(=O)NC5=O)C6=O)CC4)cn3)nc2n(C2CCCC2)c1=O [BSJ-03-123]; experiment: increase in dead-cell fraction, 72 h; higher = more death;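 also: breast cancer cell lines in 384-well plates, stained with Hoechst plus LIVE/DEAD far red dye and imaged, cells above an LDR intensity threshold counted dead, Hoechst-negative corpses included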
[5] = compound: CC(=O)c1c(C)c2cnc(Nc3ccc(N4CCNCC4)cn3)nc2n(C2CCCC2)c1=O; experiment: as above
[6] = compound: CCN1CCN(Cc2ccc(Nc3ncc(F)c(-c4cc(F)c5nc(C)n(C(C)C)c5c4)n3)nc2)CC1; experiment: as above
Neratinib/HKI272 = compound: CCOc1cc2ncc(C#N)c(Nc3ccc(OCc4ccccn4)c(Cl)c3)c2cc1NC(=O)/C=C/CN(C)C [Neratinib/HKI272]; experiment: as above
[7] = compound: CCc1cnn2c(NCc3ccc[n+]([O-])c3)cc(N3CCCC[C@H]3CCO)nc12; experiment: as above
LEE011/Ribociclib = compound: CN(C)C(=O)c1cc2cnc(Nc3ccc(N4CCNCC4)cn3)nc2n1C1CCCC1 [LEE011/Ribociclib]; experiment: as above
THZ1 = compound: CN(C)C/C=C/C(=O)Nc1ccc(C(=O)Nc2cccc(Nc3ncc(Cl)c(-c4c[nH]c5ccccc45)n3)c2)cc1 [THZ1]; experiment: as above
Flavopiridol = compound: CN1CC[C@H](c2c(O)cc(O)c3c(=O)cc(-c4ccccc4Cl)oc23)[C@H](O)C1 [Flavopiridol]; experiment: as above
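For GR50, 72 h in this document: breast cancer and non-malignant breast epithelial cell lines, Deep Dye Drop or Dye Drop imaging, nine half-log doses, GR normalized to time-zero plates and DMSO-only controls.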

## SUM1315
[1]
  GR50, 72 h: 0.0211 µM
Ipatasertib/GDC0068
  GR50, 72 h: > 10 µM
[2]
  GR50, 72 h: > 10 µM
[3]
  GR50, 72 h: 0.0493 µM
BSJ-01-175
  GR50, 72 h: 0.419 µM
AZD2014
  GR50, 72 h: 0.0012 µM
[4]
  GR50, 72 h: 0.00184 µM
AZD6738
  GR50, 72 h: 4.46 µM
AZD7762
  GR50, 72 h: 0.0527 µM
Vorinostat
  GR50, 72 h: 1.76 µM
Tivantinib/ARQ197
  GR50, 72 h: 0.37 µM
BSJ-03-123; 0.001 µM
  increase in dead-cell fraction: -0.0091
BSJ-03-123; 0.003162 µM
  increase in dead-cell fraction: 0.0246
BSJ-03-123; 0.01 µM
  increase in dead-cell fraction: 0.0376
BSJ-03-123; 0.03162 µM
  increase in dead-cell fraction: 0.0297
BSJ-03-123; 0.1 µM
  increase in dead-cell fraction: 0.0105
BSJ-03-123; 0.3162 µM
  increase in dead-cell fraction: -0.0013
BSJ-03-123; 1 µM
  increase in dead-cell fraction: 0.033
BSJ-03-123; 3.162 µM
  increase in dead-cell fraction: 0.03
BSJ-03-123; 10 µM
  increase in dead-cell fraction: 0.0923
[5]; 0.0003162 µM
  increase in dead-cell fraction: -0.0007
[5]; 0.001 µM
  increase in dead-cell fraction: -0.0011
[5]; 0.003162 µM
  increase in dead-cell fraction: -0.0024
[5]; 0.01 µM
  increase in dead-cell fraction: 0.0003
[5]; 0.03162 µM
  increase in dead-cell fraction: 0.0166
[5]; 0.1 µM
  increase in dead-cell fraction: 0.0188
[5]; 0.3162 µM
  increase in dead-cell fraction: 0.0295
[5]; 1 µM
  increase in dead-cell fraction: 0.0213
[5]; 3.162 µM
  increase in dead-cell fraction: 0.0282
[6]; 0.001 µM
  increase in dead-cell fraction: 0.0105
[6]; 0.003162 µM
  increase in dead-cell fraction: 0.0024
[6]; 0.01 µM
  increase in dead-cell fraction: -0.0018
[6]; 0.03162 µM
  increase in dead-cell fraction: 0.0186
[6]; 0.1 µM
  increase in dead-cell fraction: 0.0167
[6]; 0.3162 µM
  increase in dead-cell fraction: 0.025
[6]; 1 µM
  increase in dead-cell fraction: 0.0225
[6]; 3.162 µM
  increase in dead-cell fraction: 0.0197
[6]; 10 µM
  increase in dead-cell fraction: 0.132
Neratinib/HKI272; 0.0003162 µM
  increase in dead-cell fraction: 0.0036
Neratinib/HKI272; 0.001 µM
  increase in dead-cell fraction: 0.0058
Neratinib/HKI272; 0.003162 µM
  increase in dead-cell fraction: 0.0067
Neratinib/HKI272; 0.01 µM
  increase in dead-cell fraction: 0.0047
Neratinib/HKI272; 0.03162 µM
  increase in dead-cell fraction: 0.0181
Neratinib/HKI272; 0.1 µM
  increase in dead-cell fraction: 0.0402
Neratinib/HKI272; 0.3162 µM
  increase in dead-cell fraction: 0.0578
Neratinib/HKI272; 1 µM
  increase in dead-cell fraction: 0.0857
Neratinib/HKI272; 3.162 µM
  increase in dead-cell fraction: 0.0855
[7]; 0.0001 µM
  increase in dead-cell fraction: -0.0013
[7]; 0.0003162 µM
  increase in dead-cell fraction: -0.0006
[7]; 0.001 µM
  increase in dead-cell fraction: 0.0062
[7]; 0.003162 µM
  increase in dead-cell fraction: 0.0147
[7]; 0.01 µM
  increase in dead-cell fraction: 0.0232
[7]; 0.03162 µM
  increase in dead-cell fraction: 0.578
[7]; 0.1 µM
  increase in dead-cell fraction: 0.63
[7]; 0.3162 µM
  increase in dead-cell fraction: 0.64
[7]; 1 µM
  increase in dead-cell fraction: 0.599
LEE011/Ribociclib; 0.001 µM
  increase in dead-cell fraction: 0.0236
LEE011/Ribociclib; 0.003162 µM
  increase in dead-cell fraction: 0.0101
LEE011/Ribociclib; 0.01 µM
  increase in dead-cell fraction: 0.0448
LEE011/Ribociclib; 0.03162 µM
  increase in dead-cell fraction: 0.0191
LEE011/Ribociclib; 0.1 µM
  increase in dead-cell fraction: 0.054
LEE011/Ribociclib; 0.3162 µM
  increase in dead-cell fraction: 0.071
LEE011/Ribociclib; 1 µM
  increase in dead-cell fraction: 0.0703
LEE011/Ribociclib; 3.162 µM
  increase in dead-cell fraction: 0.0888
LEE011/Ribociclib; 10 µM
  increase in dead-cell fraction: 0.114
THZ1; 0.0001 µM
  increase in dead-cell fraction: 0.0131
THZ1; 0.0003162 µM
  increase in dead-cell fraction: -0.0262
THZ1; 0.001 µM
  increase in dead-cell fraction: -0.0208
THZ1; 0.003162 µM
  increase in dead-cell fraction: 0.0035
THZ1; 0.01 µM
  increase in dead-cell fraction: -0.0115
THZ1; 0.03162 µM
  increase in dead-cell fraction: -0.0232
THZ1; 0.1 µM
  increase in dead-cell fraction: -0.0483
THZ1; 0.3162 µM
  increase in dead-cell fraction: 0.0421
THZ1; 1 µM
  increase in dead-cell fraction: 0.61
Flavopiridol; 0.0001 µM
  increase in dead-cell fraction: 0.0039
Flavopiridol; 0.0003162 µM
  increase in dead-cell fraction: -0.0083
Flavopiridol; 0.001 µM
  increase in dead-cell fraction: 0.0048
Flavopiridol; 0.003162 µM
  increase in dead-cell fraction: 0.0087
Flavopiridol; 0.01 µM
  increase in dead-cell fraction: 0.0083
Flavopiridol; 0.03162 µM
  increase in dead-cell fraction: 0.0248
Flavopiridol; 0.1 µM
  increase in dead-cell fraction: -0.0084
Flavopiridol; 0.3162 µM
  increase in dead-cell fraction: 0.383
Flavopiridol; 1 µM
  increase in dead-cell fraction: 0.596
